Here are results for one compound from paper PMC7906020, “Trp-Containing Antibacterial Peptides Impair Quorum Sensing and Biofilm Development in Multidrug-Resistant Pseudomonas aeruginosa and Exhibit Synergistic Effects With Antibiotics” (Frontiers in Microbiology, 2021).

Peptide text beside a SMILES is read from it.

Common to all, as to format: cell-based, Pseudomonas aeruginosa
In assay [1] the test system is LasB elastase of MRPA0108. Description: LasB elastase activity, elastin-Congo red method. The conditions noted are these: peptide at 1/4 × MIC, 24 h, 37°C; ECR substrate, OD495/OD600; vs control; triplicate. How it is done:
The culture supernatant was obtained after centrifugation at 12,000×g for 10 min. (1) LasB elastase activity was measured using elastin-Congo red (ECR) as the substrate, as described by [Pattnaik et al. (2018)]. Briefly, 100 μl of the culture supernatant was added to 900 μl of ECR buffer (100 mM Tris-HCl, 1 mM CaCl2, pH 7.5) containing 10 mg of ECR and then incubated with shaking at 37°C for 18 h. Then, 100 μl of 0.12 M EDTA was added to stop the reaction. The insoluble ECR was removed by centrifugation, and the supernatant absorbance was measured at 495 nm. The optical density (OD) 495 nm/OD 600 nm represents the elastase activity. (2) LasA protease activity was measured as follows ([Pattnaik et al., 2018]): first, the culture supernatant was filtered to remove the bacterial cells, and then 150 μl of sterile-filtered supernatant was added to 2% azocasein (prepared in 50 mM Tris-HCl) and incubated for 4 h at 37°C. Trichloroacetic acid (TCA, 10%) was added to precipitate the undigested substrate. After centrifugation at 10,000 rpm for 10 min, 1 M NaOH was added to the supernatant, and the relative protease activity was measured at OD 440 nm. (3) The pyocyanin assay was based on the absorbance of excreted pyocyanin at 520 nm in an acidic solution ([Kong et al., 2005]). Three milliliters of culture supernatant were mixed with 2 ml of chloroform for 20 min, and then the pyocyanin from the chloroform phase was reextracted using 0.2 M HCl for 15 min to obtain a pink-colored pyocyanin solution. The OD 520 nm was measured to evaluate the change in pyocyanin content. (4) Rhamnolipid detection was carried out as previously described ([Wittgens et al., 2011]). Briefly, 500 μl of culture supernatant was mixed with 500 μl of ethyl acetate and vortexed vigorously for 15 s to extract rhamnolipid. After centrifugation at 10,000×g for 5 min at 4°C, the organic phase containing rhamnolipids was obtained and evaporated at room temperature overnight. […] The absorbance was measured at 420 nm. (5) The level of C4-HSL was quantified by GC-MS as previously described ([Guo et al., 2012]).

The test system of assay [2] is β-lactamase activity in MRPA0108 cells. Put plainly: β-Lactamase activity assay (nitrocefin kit) in treated cells. The following applies: compared to control. How it is done:
β-lactamase activity was measured by using a β-lactamase assay kit (YIASEN Biotech Co., Ltd., Shanghai, China) according to the manufacturer’s instructions. Briefly, mid-log growth-phase bacteria were diluted to 1 × 10^8 CFU/ml and treated with I1W or L12W at concentrations ranging from 3.13 to 50 μM for 12 h at 37°C. After induction, the cultures were harvested by centrifugation at 5,000 rpm at 4°C, washed three times with PBS buffer (pH 7.2), and then resuspended in the same buffer. The cells were sonicated on ice for 15 min, and the cell lysates containing β-lactamase were collected by centrifugation at 12,000 rpm for 30 min at 4°C. Fifty microliters of the prepared β-lactamase-containing lysates was mixed with 50 μl of assay buffer containing nitrocefin and reacted at room temperature in a dark environment for 20 min. Nitrocefin hydrolysis was measured spectrophotometrically at 490 nm. Concurrently, the total protein content was determined with a Bradford assay using the same supernatant. One milliunit of β-lactamase is defined as 1 nanomole of nitrocefin hydrolyzed per minute per microgram of protein.

Assay [3] concerns OprM gene expression in MRPA0108. Put plainly: Real-time qPCR of efflux pump gene OprM. The conditions noted are these: peptide at its MIC (I1W 6.25 μM, L12W 25 μM); Supplementary Figure S2. The protocol: (§1) Mid-logarithmic (mid-log) growth-phase MRPA0108 cells (1 × 10^8 CFU/ml) were incubated with the different concentrations of peptide at 37°C for 18 h. The bacterial cells were collected by centrifugation at 13,000×g and digested in lysis buffer containing 10 mg/ml lysozyme. Total RNA was isolated by using a TRIzol® Max^TM Kit (Invitrogen, Shanghai, China) according to the manufacturer’s instructions and subsequently reverse transcribed into cDNA using a Prime Script RT Master Mix Kit (Takara, Dalian, China). Real-time PCR was performed in an ABI QuantStudio^TM 5 sequence detection system (Applied Biosystems, United States) using 2 × SYBR Premix Ex Taq II (Solarbio Science and Technology Co., Ltd.). The PCR cycling conditions were as follows: 95°C for 30 s and 40 cycles of 5 s at 95°C, 30 s at 60°C, and 20 s at 72°C. The fold changes calculated according to the comparative cycle threshold (Ct) method were used for quantifying gene expression, normalizing to the expression of the housekeeping gene rpsL. PCR primers, including those for lasA, lasB, rhlA, rhlB, pelA, algD, psl, oprD, oprM, mexA, and mexB, were synthesized by Sangon Biotech (Shanghai, China) and are presented in Supplementary Table S2.
In general terms: Real-time PCR tracks product formation cycle by cycle.

Assay [4] has as its system MRPA0108 biofilm formation. The following applies: peptide at 1 × MIC, 24 h, 37°C; crystal violet OD 590 nm; vs control. How it is done: The biofilm formation of the MRPA0108 strain was assessed as described previously ([Shang et al., 2017]). Briefly, 50 μl of a mid-log growth-phase bacterial solution (1 × 10^5 CFU/ml) was placed into a 96-well microtiter plate and incubated overnight with 50 μl of peptide at a final concentration of 1/8 × MIC, 1/4 × MIC, 1/2 × MIC, or 1 × MIC. LB liquid medium and erythromycin were used as negative and positive controls, respectively. After 24 h of incubation at 37°C, planktonic bacteria were carefully removed, and the biofilms were fixed with formaldehyde for 15 min and stained with 0.1% (w/v) crystal violet (CV) dye for 5 min. Before being quantified by reading the absorbance at 590 nm in a microtiter plate reader (Varioskan Flash Microplate Reader, Thermo Fisher Scientific Co., Beijing), biofilms were washed and solubilized with 95% ethanol. The OD 590 nm was determined as a measure of biofilm biomass.

Assay [5] concerns OprD gene expression in MRPA0108. Description: Real-time qPCR of porin gene OprD. The conditions noted are these: peptide at its MIC (I1W 6.25 μM, L12W 25 μM); Supplementary Figure S2. How it is done: as §1

For the compound `CC[C@H](C)[C@H](NC(=O)[C@H](CCCCN)NC(=O)[C@H](CO)NC(=O)[C@H](CC(C)C)NC(=O)[C@@H](NC(=O)[C@H](CCCCN)NC(=O)[C@H](CCCCN)NC(=O)[C@@H](N)Cc1c[nH]c2ccccc12)[C@@H](C)CC)C(=O)N[C@@H](CCCCN)C(=O)N[C@@H](CCCCN)C(=O)N[C@@H](CC(C)C)C(=O)N[C@@H](CC(C)C)C(=O)N[C@@H](CCCCN)C(N)=O` [I1W] (H-WKKILSKIKKLLK-NH2; N-terminus and C-terminus assumed), in assay [1], the “decrease of LasB elastase activity” value was determined as 21.0%. The “effect on β-lactamase activity, peptide alone” value in assay [2] (peptide alone at concentrations greater than 12.5 μM) is “reduced β-lactamase activity”; in assay [2] (peptide alone at low concentrations) it was “no effect on β-lactamase activity”. The “reduction of OprM gene expression” value in assay [3] was 22.3%. Further, the “reduction of biofilm formation” value in assay [4] is listed as 53%. Moreover, in assay [5], the “reduction of OprD gene expression” value was determined as 27%.
